Common to all, as to assay: Bacterial growth minimal inhibitory concentration (broth microdilution, CLSI M7-A7)
Common to all, as to format: cell-based
On the technique in general: Broth dilution looks for growth in wells or tubes with falling amounts of substance.

Assay [1] deals with Acinetobacter baumannii T6474. The settings on record: Acinetobacter baumannii, T6474, cation-adjusted Mueller-Hinton Broth, multiply-resistant strain (in particular quinolone-resistant). The protocol:
(§1) Minimal Inhibitory Concentrations (MICs; mg/L) were determined in cation-adjusted Mueller-Hinton Broth by a microdilution method following the description given in “Methods for Dilution Antimicrobial Susceptibility Tests for Bacteria that Grow Aerobically”, Approved standard, 7th ed., Clinical and Laboratory Standards Institute (CLSI) Document M7-A7, Wayne, Pa., USA (2006).
(§2) All Example compounds were tested against several Gram positive and Gram negative bacteria. […] Staphylococcus aureus A798, Enterococcus faecium A949 and Acinetobacter baumannii T6474 are multiply-resistant strains (in particular quinolone-resistant), while Moraxella catarrhalis A894 is a quinolone-sensitive strain and Staphylococcus aureus ATCC29213 is a methicillin-sensitive and quinolone-sensitive strain.

In assay [2] the test system is Enterococcus faecium A949. The settings on record: Enterococcus faecium, A949, cation-adjusted Mueller-Hinton Broth, multiply-resistant strain (in particular quinolone-resistant), read-out: MIC for E. faecium A949. The protocol: as §1, §2
For assay [3], the system named is Moraxella catarrhalis A894. The following applies: Moraxella catarrhalis, A894, cation-adjusted Mueller-Hinton Broth, quinolone-sensitive strain. The protocol: as §1, §2
For assay [4], the system named is Staphylococcus aureus A798. The following applies: Staphylococcus aureus, A798, cation-adjusted Mueller-Hinton Broth, multiply-resistant strain (in particular quinolone-resistant), read-out: MIC for S. aureus A798. The protocol: as §1, §2
For assay [5], the system named is Staphylococcus aureus ATCC29213. The settings on record: Staphylococcus aureus, ATCC29213, cation-adjusted Mueller-Hinton Broth, methicillin-sensitive and quinolone-sensitive strain, read-out: MIC for S. aureus ATCC29213. The protocol: as §1, §2

The record followed here is patent publication US9527867B2, “Antibacterial biaromatic derivatives” (Actelion Pharmaceuticals Ltd., priority 2013, dated 2016).

Converted amounts (≈) assume the structure as drawn.

For orientation: MIC means the lowest concentration that inhibits growth of the organism.

In the case of `COc1cccc(-c2cccc(CNCC[C@@H]3CN(c4ccc5c(c4)NC(=O)CS5)C(=O)O3)c2)n1` [Example 15, 6-((R)-5-{2-[3-(6-methoxy-pyridin-2-yl)-benzylamino]-ethyl}-2-oxo-oxazolidin-3-yl)-4H-benzo[1,4]thiazin-3-one], the minimal inhibitory concentration (MIC) in assay [1] was 0.125 µg/mL (≈ 0.255 µM); in assay [2], 0.5 µg/mL (≈ 1.02 µM); in assay [3], no more than 0.016 µg/mL; in assay [4], 0.031 µg/mL (≈ 0.0632 µM); in assay [5], 0.063 µg/mL (≈ 0.128 µM).
Taken in the same sequence, the figures for `COc1ccc(-c2cccc(CNCC[C@@H]3CN(c4ccc5c(c4)NC(=O)CS5)C(=O)O3)c2)cn1` [Example 16, 6-((R)-5-{2-[3-(6-methoxy-pyridin-3-yl)-benzylamino]-ethyl}-2-oxo-oxazolidin-3-yl)-4H-benzo[1,4]thiazin-3-one] were 1 µg/mL (≈ 2.04 µM), 2 µg/mL (≈ 4.08 µM), 0.063 µg/mL (≈ 0.128 µM), 0.5 µg/mL (≈ 1.02 µM) and 0.5 µg/mL (≈ 1.02 µM).
Taken in the same sequence, the figures for `N#Cc1cncc(-c2cccc(CNCC[C@@H]3CN(c4ccc5c(c4)NC(=O)CS5)C(=O)O3)c2)c1` [Example 17, 5-[3-({2-[(R)-2-oxo-3-(3-oxo-3,4-dihydro-2H-benzo[1,4]thiazin-6-yl)-oxazolidin-5-yl]-ethylamino}-methyl)-phenyl]-nicotinonitrile] were 0.125 µg/mL (≈ 0.257 µM), 1 µg/mL (≈ 2.06 µM), no more than 0.016 µg/mL, 0.125 µg/mL (≈ 0.257 µM) and 0.063 µg/mL (≈ 0.13 µM).
The like results for `N#Cc1cccc(-c2cccc(CNCC[C@@H]3CN(c4ccc5c(c4)NC(=O)CS5)C(=O)O3)c2)n1` [Example 18, 6-[3-({2-[(R)-2-oxo-3-(3-oxo-3,4-dihydro-2H-benzo[1,4]thiazin-6-yl)-oxazolidin-5-yl]-ethylamino}-methyl)-phenyl]-pyridine-2-carbonitrile] were, in that order, 0.25 µg/mL (≈ 0.515 µM), 4 µg/mL (≈ 8.24 µM), 0.031 µg/mL (≈ 0.0638 µM), 0.25 µg/mL (≈ 0.515 µM) and 0.25 µg/mL (≈ 0.515 µM).
As for `N#Cc1cnc(O)c(-c2cccc(CNCC[C@@H]3CN(c4ccc5c(c4)NC(=O)CS5)C(=O)O3)c2)c1` [Example 19, 6-hydroxy-5-[3-({2-[(R)-2-oxo-3-(3-oxo-3,4-dihydro-2H-benzo[1,4]thiazin-6-yl)-oxazolidin-5-yl]-ethylamino}-methyl)-phenyl]-nicotinonitrile], the MIC in assay [1] was 1 µg/mL (≈ 1.99 µM); in assay [2] it was greater than 8 µg/mL; in assay [3] it was 0.125 µg/mL (≈ 0.249 µM); in assay [4], 1 µg/mL (≈ 1.99 µM); in assay [5] it was 1 µg/mL (≈ 1.99 µM).
For `COc1cccc(-c2cccc(CNCC[C@@H]3CN(c4ccc5c(c4)NC(=O)CS5)C(=O)O3)n2)c1` [Example 20, 6-[(R)-5-(2-{[6-(3-methoxy-phenyl)-pyridin-2-ylmethyl]-amino}-ethyl)-2-oxo-oxazolidin-3-yl]-4H-benzo[1,4]thiazin-3-one], the MIC in assay [1] was determined as 0.5 µg/mL (≈ 1.02 µM); in assay [2], 1 µg/mL (≈ 2.04 µM); in assay [3], 0.063 µg/mL (≈ 0.128 µM); in assay [4], 0.25 µg/mL (≈ 0.51 µM); in assay [5] it was 0.125 µg/mL (≈ 0.255 µM).
Taken in the same sequence, the figures for `COc1cccc(-c2ccnc(CNCC[C@@H]3CN(c4ccc5c(c4)NC(=O)CS5)C(=O)O3)c2)c1` [Example 21, 6-[(R)-5-(2-{[4-(3-methoxy-phenyl)-pyridin-2-ylmethyl]-amino}-ethyl)-2-oxo-oxazolidin-3-yl]-4H-benzo[1,4]thiazin-3-one] were 0.25 µg/mL (≈ 0.51 µM), 1 µg/mL (≈ 2.04 µM), 0.031 µg/mL (≈ 0.0632 µM), 0.125 µg/mL (≈ 0.255 µM) and 0.125 µg/mL (≈ 0.255 µM).
Taken in the same sequence, the figures for `COc1cccc(-c2cccc(CNCC[C@@H]3CN(c4ccc5c(c4)NC(=O)CS5)C(=O)O3)n2)n1` [Example 22, 6-((R)-5-{2-[(6′-methoxy-[2,2]bipyridinyl-6-ylmethyl)-amino]-ethyl}-2-oxo-oxazolidin-3-yl)-4H-benzo[1,4]thiazin-3-one] were 1 µg/mL (≈ 2.03 µM), 2 µg/mL (≈ 4.07 µM), 0.063 µg/mL (≈ 0.128 µM), 0.5 µg/mL (≈ 1.02 µM) and 0.25 µg/mL (≈ 0.509 µM).
Take `COc1ccnc(-c2cccc(CNCC[C@@H]3CN(c4ccc5c(c4)NC(=O)CS5)C(=O)O3)c2)n1` [Example 23, 6-((R)-5-{2-[3-(4-methoxy-pyrimidin-2-yl)-benzylamino]-ethyl}-2-oxo-oxazolidin-3-yl)-4H-benzo[1,4]thiazin-3-one]: the MIC in assay [1] is 0.25 µg/mL (≈ 0.509 µM); in assay [2], 1 µg/mL (≈ 2.03 µM); in assay [3], no more than 0.016 µg/mL; in assay [4] it was 0.063 µg/mL (≈ 0.128 µM); in assay [5], 0.063 µg/mL (≈ 0.128 µM).
Consider `COc1cc(-c2cccc(CNCC[C@@H]3CN(c4ccc5c(c4)NC(=O)CS5)C(=O)O3)c2)ncn1` [Example 24, 6-((R)-5-{2-[3-(6-methoxy-pyrimidin-4-yl)-benzylamino]-ethyl}-2-oxo-oxazolidin-3-yl)-4H-benzo[1,4]thiazin-3-one], for which the MIC in assay [1] was 1 µg/mL (≈ 2.03 µM); in assay [2], 4 µg/mL (≈ 8.14 µM); in assay [3] it was 0.063 µg/mL (≈ 0.128 µM); in assay [4], 0.5 µg/mL (≈ 1.02 µM); in assay [5], 0.5 µg/mL (≈ 1.02 µM).
Regarding `COc1cncc(-c2cccc(CNCC[C@@H]3CN(c4ccc5c(c4)NC(=O)CS5)C(=O)O3)c2)n1` [Example 25, 6-((R)-5-{2-[3-(6-methoxy-pyrazin-2-yl)-benzylamino]-ethyl}-2-oxo-oxazolidin-3-yl)-4H-benzo[1,4]thiazin-3-one], the MIC in assay [1] was 0.25 µg/mL (≈ 0.509 µM); in assay [2] it was 1 µg/mL (≈ 2.03 µM); in assay [3], no more than 0.016 µg/mL; in assay [4], 0.031 µg/mL (≈ 0.0631 µM); in assay [5] it was 0.031 µg/mL (≈ 0.0631 µM).
Regarding `COc1cc(-c2cccc(CNCC[C@@H]3CN(c4ccc5c(c4)NC(=O)CS5)C(=O)O3)c2)nc(OC)n1` [Example 26, 6-((R)-5-{2-[3-(2,6-dimethoxy-pyrimidin-4-yl)-benzylamino]-ethyl}-2-oxo-oxazolidin-3-yl)-4H-benzo[1,4]thiazin-3-one], the MIC was 2 µg/mL (≈ 3.83 µM) in assay [1]; 4 µg/mL (≈ 7.67 µM) in assay [2]; 0.063 µg/mL (≈ 0.121 µM) in assay [3]; 0.25 µg/mL (≈ 0.479 µM) in assay [4]; 0.5 µg/mL (≈ 0.959 µM) in assay [5].
Taken in the same sequence, the figures for `COc1cc(OC)nc(-c2cccc(CNCC[C@@H]3CN(c4ccc5c(c4)NC(=O)CS5)C(=O)O3)c2)n1` [Example 27, 6-((R)-5-{2-[3-(4,6-dimethoxy-pyrimidin-2-yl)-benzylamino]-ethyl}-2-oxo-oxazolidin-3-yl)-4H-benzo[1,4]thiazin-3-one] were 0.5 µg/mL (≈ 0.959 µM), 1 µg/mL (≈ 1.92 µM), no more than 0.016 µg/mL, 0.031 µg/mL (≈ 0.0594 µM) and 0.063 µg/mL (≈ 0.121 µM).
Taken in the same sequence, the figures for `COc1nc(OC)nc(-c2cccc(CNCC[C@@H]3CN(c4ccc5c(c4)NC(=O)CS5)C(=O)O3)c2)n1` [Example 28, 6-((R)-5-{2-[3-(4,6-dimethoxy-[1,3,5]triazin-2-yl)-benzylamino]-ethyl}-2-oxo-oxazolidin-3-yl)-4H-benzo[1,4]thiazin-3-one] were 1 µg/mL (≈ 1.91 µM), 4 µg/mL (≈ 7.65 µM), 0.063 µg/mL (≈ 0.121 µM), 0.25 µg/mL (≈ 0.478 µM) and 0.25 µg/mL (≈ 0.478 µM).
For `COc1cc(-c2cccc(CNCC[C@@H]3CN(c4ccc5c(c4)NC(=O)CS5)C(=O)O3)c2)ccc1C(N)=O` [Example 29, 3-methoxy-3′-({2-[(R)-2-oxo-3-(3-oxo-3,4-dihydro-2H-benzo[1,4]thiazin-6-yl)-oxazolidin-5-yl]-ethylamino}-methyl)-biphenyl-4-carboxylic acid amide], the MIC in assay [1] worked out at 2 µg/mL (≈ 3.76 µM); in assay [2], 8 µg/mL (≈ 15 µM); in assay [3] it was 0.063 µg/mL (≈ 0.118 µM); in assay [4] it was 2 µg/mL (≈ 3.76 µM); in assay [5], 1 µg/mL (≈ 1.88 µM).
For the compound `COc1cnnc(-c2cccc(CNCC[C@@H]3CN(c4ccc5c(c4)NC(=O)CS5)C(=O)O3)c2)c1` [Example 30, 6-((R)-5-{2-[3-(5-methoxy-pyridazin-3-yl)-benzylamino]-ethyl}-2-oxo-oxazolidin-3-yl)-4H-benzo[1,4]thiazin-3-one], the MIC in assay [1] was 0.25 µg/mL (≈ 0.509 µM); in assay [2], 4 µg/mL (≈ 8.14 µM); in assay [3], 0.031 µg/mL (≈ 0.0631 µM); in assay [4] it was 0.125 µg/mL (≈ 0.254 µM); in assay [5] it was 0.125 µg/mL (≈ 0.254 µM).
Turning to `COc1ccc(C#N)c(-c2cccc(CNCC[C@@H]3CN(c4ccc5c(n4)NC(=O)CO5)C(=O)O3)c2)c1` [Example 32, 5-methoxy-3′-({2-[(R)-2-oxo-3-(3-oxo-3,4-dihydro-2H-pyrido[3,2-b][1,4]oxazin-6-yl)-oxazolidin-5-yl]-ethylamino}-methyl)-biphenyl-2-carbonitrile], the minimal inhibitory concentration (MIC) in assay [1] was 0.5 µg/mL (≈ 1 µM); in assay [2], 2 µg/mL (≈ 4 µM); in assay [3], no more than 0.016 µg/mL; in assay [4], 0.125 µg/mL (≈ 0.25 µM); in assay [5], 0.125 µg/mL (≈ 0.25 µM).
`N#Cc1cccc(-c2cccc(CNCC[C@@H]3CN(c4ccc5c(n4)NC(=O)CO5)C(=O)O3)c2)c1` [Example 33, 3′-({2-[(R)-2-oxo-3-(3-oxo-3,4-dihydro-2H-pyrido[3,2-b][1,4]oxazin-6-yl)-oxazolidin-5-yl]-ethylamino}-methyl)-biphenyl-3-carbonitrile]: the MIC was 0.125 µg/mL (≈ 0.266 µM) in assay [1]; 2 µg/mL (≈ 4.26 µM) in assay [2]; no more than 0.016 µg/mL in assay [3]; 0.25 µg/mL (≈ 0.532 µM) in assay [4]; 0.125 µg/mL (≈ 0.266 µM) in assay [5].
